System: HBV (encapsidated HBV DNA, HepG2.2.15 cells)
Test: HBV replication inhibition assay, BDNA assay in HepG2.2.15 cells
Type: cell-based
Method: HBV replication inhibition by the disclosed compounds were determined in cells infected or transfected with HBV, or cells with stably integrated HBV, such as HepG2.2.15 cells (Sells et al. 1987). In this example, HepG2.2.15 cells were maintained in cell culture medium containing 10% fetal bovine serum (FBS), Geneticin, L-glutamine, penicillin and streptomycin. HepG2.2.15 cells were seeded in 96-well plates at a density of 40,000 cells/well and were treated with serially diluted compounds at a final DMSO concentration of 0.5% either alone or in combination by adding drugs in a checker box format. Cells were incubated with compounds for three days, after which medium was removed and fresh medium containing compounds was added to cells and incubated for another three days. At day 6, supernatant was removed and treated with DNase at 37° C. for 60 minutes, followed by enzyme inactivation at 75° C. for 15 minutes. Encapsidated HBV DNA was released from the virions and covalently linked HBV polymerase by incubating in lysis buffer (Affymetrix QS0010) containing 2.5 μg proteinase K at 50° C. for 40 minutes. HBV DNA was denatured by addition of 0.2 M NaOH and detected using a branched DNA (BDNA) QuantiGene assay kit according to manufacturer recommendation (Affymetrix). HBV DNA levels were also quantified using qPCR, based on amplification of encapsidated HBV DNA extraction with QuickExtraction Solution (Epicentre Biotechnologies) and amplification of HBV DNA using HBV specific PCR probes that can hybridize to HBV DNA and a fluorescently labeled probe for quantitation. In addition, cell viability of HepG2.2.15 cells incubated with test compounds alone or in combination was determined by using CellTitre-Glo reagent according to the manufacturer protocol (Promega). The mean background signal from wells containing only culture medium was subtracted from all other samples, and percent inhibition at each compound concentration was calculated by normalizing to signals from HepG2.2.15 cells treated with 0.5% DMSO using equation E1. % inhibition=(DMSOave−Xi)/DMSOave×100% E1: where DMSOave is the mean signal calculated from the wells that were treated with DMSO control (0% inhibition control) and Xi is the signal measured from the individual wells. EC50 values, effective concentrations that achieved 50% inhibitory effect, were determined by non-linear fitting using Graphpad Prism software (San Diego, Calif.) and equation E2: Y=Y min+(Y max −Y min)/(1+10(Log EC50−X)×HillSlope) E2: […]
where Y represents percent inhibition values and X represents the logarithm of compound concentrations.
Selected disclosed compounds were assayed in the HBV replication assay (BDNA assay), as described above and a representative group of these active compounds is shown in Table 6.

[1] = Hepatitis B virus, HepG2.2.15, Activity in BDNA-assay

Row | Compound | EC50 (Activity in BDNA-assay) | EC50 [1]
1 | C[C@@H]1Cc2nn3c(c2CN1C(=O)Nc1ccc(F)c(C(F)(F)F)c1)C(=O)N(C)CC(F)(CO)C3 (single isomer, unassigned) [Compound 133_D2, (3R,8S*)-8-fluoro-N-(4-fluoro-3-(trifluoromethyl)phenyl)-8-(hydroxymethyl)-3,10-dimethyl-11-oxo-1,3,4,7,8,9,10,11-octahydro-2H-pyrido[4′,3′:3,4]pyrazolo[1,5-a][1,4]diazepine-2-carboxamide_D2] | 1 to 100 nM | –
2 | CN1CC(N2CCCC2)Cn2nc3c(c2C1=O)CN(C(=O)Nc1ccc(F)c(Cl)c1)CC3 (centres unmarked) [Compound 024, N-(3-chloro-4-fluorophenyl)-10-methyl-11-oxo-8-(pyrrolidin-1-yl)-1,3,4,7,8,9,10,11-octahydro-2H-pyrido[4′,3′:3,4]pyrazolo[1,5-a][1,4]diazepine-2-carboxamide] | – | 1 to 100 nM
3 | CCC(O)C1CN(C)C(=O)c2c3c(nn2C1)CCN(C(=O)Nc1ccc(F)c(C#N)c1)C3 (single isomer, unassigned) [Compound 097_E3, (S*)—N-(3-cyano-4-fluorophenyl)-8-((S*)-1-hydroxypropyl)-10-methyl-11-oxo-1,3,4,7,8,9,10,11-octahydro-2H-pyrido[4′,3′: 3,4]pyrazolo[1,5-a][1,4]diazepine-2-carboxamide] | 100 to 500 nM | –
4 | C[C@@H]1Cc2nn3c(c2CN1C(=O)Nc1ccc(F)c(Br)c1)C(=O)N(C)CC(CO)C3 (single isomer, unassigned) [Compound 086_D2, (3R,8R*)—N-(3-bromo-4-fluorophenyl)-8-(hydroxymethyl)-3,10-dimethyl-11-oxo-1,3,4,7,8,9,10,11-octahydro-2H-pyrido[4′,3′:3,4]pyrazolo[1,5-a][1,4]diazepine-2-carboxamide] | 1 to 100 nM | –
5 | CN1CCC(CO)n2nc3c(c2C1=O)CN(C(=O)Nc1ccc(F)c(Cl)c1)CC3 (centres unmarked) [Compound 114, N-(3-chloro-4-fluorophenyl)-7-(hydroxymethyl)-10-methyl-11-oxo-1,3,4,7,8,9,10,11-octahydro-2H-pyrido[4′,3′:3,4]pyrazolo[1,5-a][1,4]diazepine-2-carboxamide] | – | 1 to 100 nM
6 | C[C@@H]1Cc2nn3c(c2CN1C(=O)Nc1cc(Br)c(F)cc1F)C(=O)N(C)CC(CO)C3 (single isomer, unassigned) [Compound 085_D2, (3R,8R*)—N-(5-bromo-2,4-difluorophenyl)-8-(hydroxymethyl)-3,10-dimethyl-11-oxo-1,3,4,7,8,9,10,11-octahydro-2H-pyrido[4′,3′:3,4]pyrazolo[1,5-a][1,4]diazepine-2-carboxamide] | 1 to 100 nM | –
7 | CN1CC(C(O)CC2CC2)Cn2nc3c(c2C1=O)CN(C(=O)Nc1ccc(F)c(Cl)c1)CC3 (centres unmarked) [Compound 047, N-(3-chloro-4-fluoro-phenyl)-8-(2-cyclopropyl-1-hydroxy-ethyl)-10-methyl-1-oxo-1,3,4,7,8,9-hexahydropyrido[2,3]pyrazolo[2,4-b][1,4]diazepine-2-carboxamide] | – | 1 to 100 nM
8 | C[C@@H]1Cc2nn3c(c2CN1C(=O)Nc1ccc(F)c(C#N)c1)C(=O)N(C)CC(C)(C)C3 [Compound 139, (R)-N-(3-cyano-4-fluorophenyl)-3,8,8,10-tetramethyl-11-oxo-1,3,4,7,8,9,10,11-octahydro-2H-pyrido[4′,3′:3,4]pyrazolo[1,5-a][1,4]diazepine-2-carboxamide] | – | 1 to 100 nM
9 | CCC(O)C1CN(C)C(=O)c2c3c(nn2C1)CCN(C(=O)Nc1ccc(F)c(C(F)(F)F)c1)C3 (single isomer, unassigned) [Compound 099_E3, (S*)—N-(4-fluoro-3-(trifluoromethyl)phenyl)-8-((S*)-1-hydroxypropyl)-10-methyl-11-oxo-1,3,4,7,8,9,10,11-octahydro-2H-pyrido[4′,3′:3,4]pyrazolo[1,5-a][1,4]diazepine-2-carboxamide] | 1 to 100 nM | –
10 | CCC(O)C1CN(C)C(=O)c2c3c(nn2C1)CCN(C(=O)Nc1ccc(F)c(C#N)c1F)C3 (single isomer, unassigned) [Compound 098_E1, (R*)—N-(3-cyano-2,4-difluorophenyl)-8-((S*)-1-hydroxypropyl)-10-methyl-11-oxo-1,3,4,7,8,9,10,11-octahydro-2H-pyrido[4′,3′:3,4]pyrazolo[1,5-a][1,4]diazepine-2-carboxamide] | 1 to 100 nM | –
11 | C=C1CN(C)C(=O)c2c3c(nn2C1)CCN(C(=O)Nc1ccc(F)c(Cl)c1)C3 [Compound 001, N-(3-chloro-4-fluorophenyl)-10-methyl-8-methylene-11-oxo-1,3,4,7,8,9,10,11-octahydro-2H-pyrido[4′,3′:3,4]pyrazolo[1,5-a][1,4]diazepine-2-carboxamide] | – | 1 to 100 nM
12 | CN1CC(CNCC(F)F)Cn2nc3c(c2C1=O)CN(C(=O)Nc1ccc(F)c(Br)c1F)CC3 (single isomer, unassigned) [Compound 129_E1, (R*)—N-(3-bromo-2,4-difluorophenyl)-8-(((2,2-difluoroethyl)amino)methyl)-10-methyl-11-oxo-1,3,4,7,8,9,10,11-octahydro-2H-pyrido[4′,3′:3,4]pyrazolo[1,5-a][1,4]diazepine-2-carboxamide] | 100 to 500 nM | –
13 | CCC(O)C1CN(C)C(=O)c2c3c(nn2C1)CCN(C(=O)Nc1ccc(F)c(C#N)c1)C3 (single isomer, unassigned) [Compound 097_E4, (R*)—N-(3-cyano-4-fluorophenyl)-8-((R*)-1-hydroxypropyl)-10-methyl-11-oxo-1,3,4,7,8,9,10,11-octahydro-2H-pyrido[4′,3′: 3,4]pyrazolo[1,5-a][1,4]diazepine-2-carboxamide] | 1 to 100 nM | –
14 | CN1CC(S(C)(=O)=O)Cn2nc3c(c2C1=O)CN(C(=O)Nc1ccc(F)c(Cl)c1)CC3 (centres unmarked) [Compound 027, N-(3-chloro-4-fluoro-phenyl)-10-methyl-8-methylsulfonyl-11-oxo-1,3,4,7,8,9-hexahydropyrido[2,3]pyrazolo[2,4-b][1,4]diazepine-2-carboxamide] | – | 1 to 100 nM
15 | CCOC(=O)C1CN(C)C(=O)c2c3c(nn2C1)CCN(C(=O)Nc1ccc(F)c(Cl)c1)C3 (centres unmarked) [Compound 030, ethyl 2-((3-chloro-4-fluorophenyl)carbamoyl)-10-methyl-11-oxo-2,3,4,7,8,9,10,11-octahydro-1H-pyrido[4′,3′:3,4]pyrazolo[1,5-a][1,4]diazepine-8-carboxylate] | – | > 1000 nM
16 | C=CC(O)C1CN(C)C(=O)c2c3c(nn2C1)CC(C)N(C(=O)Nc1ccc(F)c(C#N)c1)C3 (single isomer, unassigned) [Compound 123_D2, (3R,8S*)—N-(3-cyano-4-fluorophenyl)-8-((S*)-1-hydroxyallyl)-3,10-dimethyl-11-oxo-1,3,4,7,8,9,10,11-octahydro-2H-pyrido[4′,3′:3,4]pyrazolo[1,5-a][1,4]diazepine-2-carboxamide] | 100 to 500 nM | –
17 | C[C@@H]1Cc2nn3c(c2CN1C(=O)Nc1ccc(F)c(C(F)(F)F)c1)C(=O)N(C)CC(F)(CO)C3 (single isomer, unassigned) [Compound 133_D1, (3R,8R*)-8-fluoro-N-(4-fluoro-3-(trifluoromethyl)phenyl)-8-(hydroxymethyl)-3,10-dimethyl-11-oxo-1,3,4,7,8,9,10,11-octahydro-2H-pyrido[4′,3′:3,4]pyrazolo[1,5-a][1,4]diazepine-2-carboxamide_D1] | – | 1 to 100 nM
18 | CN1CC(F)Cn2nc3c(c2C1=O)CN(C(=O)Nc1ccc(F)c(C#N)c1)CC3 (centres unmarked) [Compound 009, N-(3-cyano-4-fluorophenyl)-8-fluoro-10-methyl-11-oxo-1,3,4,7,8,9,10,11-octahydro-2H-pyrido[4′,3′:3,4]pyrazolo[1,5-a][1,4]diazepine-2-carboxamide] | – | 1 to 100 nM
19 | CN1CC(CNCC(F)F)Cn2nc3c(c2C1=O)CN(C(=O)Nc1ccc(F)c(Cl)c1F)CC3 (single isomer, unassigned) [Compound 128_E1, (R*)—N-(3-chloro-2,4-difluorophenyl)-8-(((2,2-difluoroethyl)amino)methyl)-10-methyl-11-oxo-1,3,4,7,8,9,10,11-octahydro-2H-pyrido[4′,3′:3,4]pyrazolo[1,5-a][1,4]diazepine-2-carboxamide] | 100 to 500 nM | –
20 | CC1CCn2nc3c(c2C(=O)N1C)CN(C(=O)Nc1ccc(F)c(Cl)c1)CC3 (centres unmarked) [Compound 039, N-(3-chloro-4-fluorophenyl)-9,10-dimethyl-11-oxo-1,3,4,7,8,9,10,11-octahydro-2H-pyrido[4′,3′:3,4]pyrazolo[1,5-a][1,4]diazepine-2-carboxamide] | – | 1 to 100 nM

From patent US10975077B2 (Novira Therapeutics, Inc., priority 2016, dated 2021)
